In patent publication US20150018384A1, “TREATMENT FOR HIGH CHOLESTEROL” (FibroGen, Inc., priority 2012, published 2015):

Columns and labels:
Sprague-Dawley rats = experiment: Single oral dose lipid panel in rats; assay type: in vivo, rat; conditions: fasted rats, single oral dose 60 mg/kg, after 24 hours
Protocol: Blood samples were collected at baseline (pre-dose) and approximately 24 hours following dosing to determine levels of cholesterol, HDL, LDL and the LDL/HDL ratio.

cynomolgus monkeys = experiment: Cholesterol levels after repeated oral administration in monkey toxicity studies; assay type: in vivo, cynomolgus monkey
Protocol: During these studies monkeys were fasted prior to each blood collection. Plasma samples were then evaluated at pre-dose and at different time-points for levels of total cholesterol.

Cc1nc(C(=O)NCC(=O)O)c(O)c2ccc(Oc3ccccc3)cc12 [Compound A, [(4-Hydroxy-1-methyl-7-phenoxy-isoquinoline-3-carbonyl)-amino]-acetic acid]
HDL decrease from baseline (Sprague-Dawley rats): 21 ± 7 mg/dL
LDL decrease from baseline (Sprague-Dawley rats): 11 ± 3 mg/dL
total cholesterol decrease from baseline (Sprague-Dawley rats): 26 ± 9 mg/dL
total cholesterol levels (cynomolgus monkeys; 22-week study, intermittent oral dosing 1, 10, 30 and 40 mg/kg, day 28 to day 152): dose-dependent decrease in cholesterol levels
total cholesterol levels (cynomolgus monkeys; 22-week study, intermittent oral dosing 1, 10, 30 and 40 mg/kg, day 28 to day 152, listed as compound A): dose dependent decrease in total cholesterol
total cholesterol levels (cynomolgus monkeys; 28-Day study, daily oral dosing 1, 10 and 30 mg/kg, day 28): dose-dependent decrease in cholesterol levels
total cholesterol levels (cynomolgus monkeys; 28-Day study, daily oral dosing 1, 10 and 30 mg/kg, day 28, listed as compound A): dose dependent decrease in total cholesterol
cholesterol (cynomolgus monkeys; additional monkey study, up to one year): decreases in cholesterol were observed and maintained for up to one year
